Measured values taken from patent US9115101B2 (Genentech, Inc., priority 2012, dated 2015).

The compounds below were run against T1, RORc ligand binding domain (Homo sapiens, UniProt P51449) (assay: In Vitro RORc Ligand Binding Assay (25-[3H]hydroxycholesterol radioligand filtration)). Conditions: In Vitro RORc Ligand Binding Assay; Table 4; read-out: RORc IC50.
T1 construct: host or cells: E. coli
T1 sequence (P51449 269-508 limits assumed): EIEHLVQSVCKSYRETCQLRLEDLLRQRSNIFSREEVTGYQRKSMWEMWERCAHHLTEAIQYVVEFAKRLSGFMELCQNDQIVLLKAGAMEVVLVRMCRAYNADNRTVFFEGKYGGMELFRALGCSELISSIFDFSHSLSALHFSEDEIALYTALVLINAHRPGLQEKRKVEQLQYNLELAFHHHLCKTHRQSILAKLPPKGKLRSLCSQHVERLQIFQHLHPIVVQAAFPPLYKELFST

Compared with `CC(=O)N1CCN(c2ccc(CN3[C@@H](C)CCC(c4ccccc4)S3(=O)=O)c(F)c2)C[C@H]1C` (stereo partly drawn) [Example 264, 1-{4-[3-Fluoro-4-((3S)-methyl-1,1-dioxo-6-phenyl-[1,2]thiazinan-2-ylmethyl)-phenyl]-2-methyl-piperazin-1-yl}-ethanone], `C[C@@H]1CC(c2ccccc2)S(=O)(=O)N(Cc2ccc(N3CCC(n4cnnc4)CC3)cc2F)C1` (stereo partly drawn) [Example 265, 2-[2-Fluoro-4-(4-[1,2,4]triazol-4-yl-piperidin-1-yl)-benzyl]-(4R)-methyl-6-phenyl-[1,2]thiazinane 1,1-dioxide] is 3.7-fold higher in IC50: 18 nM for the first, 66 nM for the second. The first is the more potent here.

Going from `C[C@H]1CCC(c2ccccc2)S(=O)(=O)N1Cc1ccc(C(=O)NC2CC(O)C2)cc1` (stereo partly drawn) [Example 268, N-(3-Hydroxy-cyclobutyl)-4-((3S)-methyl-1,1-dioxo-6-phenyl-[1,2]thiazinan-2-ylmethyl)-benzamide] to `C[C@H]1CCC(c2ccccc2)S(=O)(=O)N1Cc1ccc(C(=O)NC2CCCC(O)C2)cc1` (stereo partly drawn) [Example 273, N-(3-Hydroxy-cyclohexyl)-4-((3S)-methyl-1,1-dioxo-6-phenyl-[1,2]thiazinan-2-ylmethyl)-benzamide], the IC50 rises from 3250 nM to 5470 nM (1.7-fold). The first is the more potent here.

`C[C@H]1CCC(c2ccccc2)S(=O)(=O)N1Cc1ccc(C(=O)NCC2COC2)cc1` (stereo partly drawn) [Example 269, 4-((3S)-Methyl-1,1-dioxo-6-phenyl-[1,2]thiazinan-2-ylmethyl)-N-oxetan-3-ylmethyl-benzamide] and `C[C@H]1CCC(c2ccccc2)S(=O)(=O)N1Cc1ccc(C(=O)NCC2CCOC2)cc1` (stereo partly drawn) [Example 271, 4-((3S)-Methyl-1,1-dioxo-6-phenyl-[1,2]thiazinan-2-ylmethyl)-N-(tetrahydro-furan-3-ylmethyl)-benzamide] are within 1.5-fold of each other in IC50: 1670 nM for the first, 1690 nM for the second.

First: C[C@H]1CCC(c2ccccc2)S(=O)(=O)N1Cc1ccc(C(=O)NC2CCCC2O)cc1 (stereo partly drawn) [Example 270, N-(2-Hydroxy-cyclopentyl)-4-((3S)-methyl-1,1-dioxo-6-phenyl-[1,2]thiazinan-2-ylmethyl)-benzamide]
Second: C[C@H]1CCC(c2ccccc2)S(=O)(=O)N1Cc1ccc(C(=O)NC2CCC(O)CC2)cc1 (stereo partly drawn) [Example 274, N-(4-Hydroxy-cyclohexyl)-4-((3S)-methyl-1,1-dioxo-6-phenyl-[1,2]thiazinan-2-ylmethyl)-benzamide]
The IC50 of the first is 1.8-fold lower: 2440 nM for the first, 4410 nM for the second.

Compared with `C[C@H]1CCC(c2ccccc2)S(=O)(=O)N1Cc1ccc(C(=O)NCCCN2CCCC2=O)cc1` (stereo partly drawn) [Example 272, 4-((3S)-Methyl-1,1-dioxo-6-phenyl-[1,2]thiazinan-2-ylmethyl)-N-[3-(2-oxo-pyrrolidin-1-yl)-propyl]-benzamide], `C[C@H]1CCC(c2ccccc2)S(=O)(=O)N1Cc1ccc(C(=O)NCCN2CCCC2=O)cc1` (stereo partly drawn) [Example 275, 4-((3S)-Methyl-1,1-dioxo-6-phenyl-[1,2]thiazinan-2-ylmethyl)-N-[2-(2-oxo-pyrrolidin-1-yl)-ethyl]-benzamide] is 2.1-fold higher in IC50: 2890 nM for the first, 6050 nM for the second.

First: CCOC(=O)N1CCC(NC(=O)c2ccc(CN3[C@@H](C)CCC(c4ccccc4)S3(=O)=O)cc2)CC1 (stereo partly drawn) [Example 276, 4-[4-((3S)-Methyl-1,1-dioxo-6-phenyl-[1,2]thiazinan-2-ylmethyl)-benzoylamino]-piperidine-1-carboxylic acid ethyl ester]
Second: C[C@H]1CCC(c2ccccc2)S(=O)(=O)N1Cc1ccc(C(=O)N2CCC(CO)CC2)cc1 (stereo partly drawn) [Example 278, (4-Hydroxymethyl-piperidin-1-yl)-[4-((3S)-methyl-1,1-dioxo-6-phenyl-[1,2]thiazinan-2-ylmethyl)-phenyl]-methanone]
The IC50 of the first is 4-fold higher: 4440 nM for the first, 1100 nM for the second.

Compared with `C[C@H]1CCC(c2ccccc2)S(=O)(=O)N1Cc1ccc(C(=O)NCCN2CCCCC2=O)cc1` (stereo partly drawn) [Example 277, 4-((3S)-Methyl-1,1-dioxo-6-phenyl-[1,2]thiazinan-2-ylmethyl)-N-[2-(2-oxo-piperidin-1-yl)-ethyl]-benzamide], `C[C@H]1CCC(c2ccccc2)S(=O)(=O)N1Cc1ccc(C(=O)N2CCCCC2CO)cc1` (stereo partly drawn) [Example 280, (2-Hydroxymethyl-piperidin-1-yl)-[4-((3S)-methyl-1,1-dioxo-6-phenyl-[1,2]thiazinan-2-ylmethyl)-phenyl]-methanone] is 1.9-fold lower in IC50: 5110 nM for the first, 2650 nM for the second. The second is the more potent here.

First: C[C@H]1CCC(c2ccccc2)S(=O)(=O)N1Cc1ccc(C(=O)N2CCC(C#N)CC2)cc1 (stereo partly drawn) [Example 279, 1-[4-((3S)-Methyl-1,1-dioxo-6-phenyl-[1,2]thiazinan-2-ylmethyl)-benzoyl]-piperidine-4-carbonitrile]
Second: C[C@H]1CCC(c2ccccc2)S(=O)(=O)N1Cc1ccc(C(=O)N2CCCC(O)CC2)cc1 (stereo partly drawn) [Example 284, (4-Hydroxy-azepan-1-yl)-[4-((3S)-methyl-1,1-dioxo-6-phenyl-[1,2]thiazinan-2-ylmethyl)-phenyl]-methanone]
The IC50 of the first is 3-fold higher: 4280 nM for the first, 1430 nM for the second. The second is the more potent here.

`C[C@H]1CCC(c2ccccc2)S(=O)(=O)N1Cc1ccc(C(=O)N2CCCC(CO)C2)cc1` (stereo partly drawn) [Example 281, (3-Hydroxymethyl-piperidin-1-yl)-[4-((3S)-methyl-1,1-dioxo-6-phenyl-[1,2]thiazinan-2-ylmethyl)-phenyl]-methanone] and `C[C@H]1CCC(c2ccccc2)S(=O)(=O)N1Cc1ccc(C(=O)N2CCCC2CO)cc1` (stereo partly drawn) [Example 290, (2-Hydroxymethyl-pyrrolidin-1-yl)-[4-((3S)-methyl-1,1-dioxo-6-phenyl-[1,2]thiazinan-2-ylmethyl)-phenyl]-methanone] are within 1.5-fold of each other in IC50: 2040 nM for the first, 1500 nM for the second.

`C[C@H]1CCC(c2ccccc2)S(=O)(=O)N1Cc1ccc(C(=O)N2CCCOCC2)cc1` (stereo partly drawn) [Example 282, [4-((3S)-Methyl-1,1-dioxo-6-phenyl-[1,2]thiazinan-2-ylmethyl)-phenyl]-[1,4]oxazepan-4-yl-methanone] and `CC(=O)N1CCCN(C(=O)c2ccc(CN3[C@@H](C)CCC(c4ccccc4)S3(=O)=O)cc2)CC1` (stereo partly drawn) [Example 285, 1-{4-[4-((3S)-Methyl-1,1-dioxo-6-phenyl-[1,2]thiazinan-2-ylmethyl)-benzoyl]-[1,4]diazepan-1-yl}-ethanone] are within 1.5-fold of each other in IC50: 5060 nM for the first, 4000 nM for the second.

`C[C@H]1CCC(c2ccccc2)S(=O)(=O)N1Cc1ccc(C(=O)N(C)CC2CCCO2)cc1` (stereo partly drawn) [Example 283, N-Methyl-4-((3S)-methyl-1,1-dioxo-6-phenyl-[1,2]thiazinan-2-ylmethyl)-N-(tetrahydro-furan-2-ylmethyl)-benzamide] and `C[C@H]1CCC(c2ccccc2)S(=O)(=O)N1Cc1ccc(C(=O)N(C)C2CCS(=O)(=O)C2)cc1` (stereo partly drawn) [Example 289, N-(1,1-Dioxo-tetrahydro-thiophen-3-yl)-N-methyl-4-((3S)-methyl-1,1-dioxo-6-phenyl-[1,2]thiazinan-2-ylmethyl)-benzamide] are within 1.5-fold of each other in IC50: 1310 nM for the first, 1740 nM for the second.

First: C[C@H]1CCC(c2ccccc2)S(=O)(=O)N1Cc1ccc(C(=O)N2CCN(S(=O)(=O)N(C)C)CC2)cc1 (stereo partly drawn) [Example 286, 4-[4-((3S)-Methyl-1,1-dioxo-6-phenyl-[1,2]thiazinan-2-ylmethyl)-benzoyl]-piperazine-1-sulfonic acid dimethylamide]
Second: C[C@H]1CCC(c2ccccc2)S(=O)(=O)N1Cc1ccc(C(=O)N2CCN(S(C)(=O)=O)CC2)cc1 (stereo partly drawn) [Example 287, (4-Methanesulfonyl-piperazin-1-yl)-[4-((3S)-methyl-1,1-dioxo-6-phenyl-[1,2]thiazinan-2-ylmethyl)-phenyl]-methanone]
The IC50 of the first is 37-fold higher: 7420 nM for the first, 203 nM for the second. The second is the more potent here.

Compared with `C[C@H]1CCC(c2ccccc2)S(=O)(=O)N1Cc1ccc(C(=O)N2CCN(C(=O)C3CC3)CC2)cc1` (stereo partly drawn) [Example 288, (4-Cyclopropane carbonyl-piperazin-1-yl)-[4-((3S)-methyl-1,1-dioxo-6-phenyl-[1,2]thiazinan-2-ylmethyl)-phenyl]-methanone], `C[C@H]1CCC(c2ccccc2)S(=O)(=O)N1Cc1ccc(C(=O)N2CCC[C@@H]2CO)cc1` (stereo partly drawn) [Example 291, (2-Hydroxymethyl-pyrrolidin-1-yl)-[4-((3S)-methyl-1,1-dioxo-6-phenyl-[1,2]thiazinan-2-ylmethyl)-phenyl]-methanone] is 2.9-fold lower in IC50: 2670 nM for the first, 911 nM for the second.

Compared with `C[C@H]1CCC(c2ccccc2)S(=O)(=O)N1Cc1ccc(C(=O)NCC2CCOCC2)cc1` (stereo partly drawn) [Example 292, 4-((3S)-Methyl-1,1-dioxo-6-phenyl-[1,2]thiazinan-2-ylmethyl)-N-(tetrahydro-pyran-4-ylmethyl)-benzamide], `C[C@H]1CCC(c2ccccc2)S(=O)(=O)N1Cc1ccc(C(=O)N2CCC(CCNS(C)(=O)=O)CC2)cc1` (stereo partly drawn) [Example 294, N-(2-{1-[4-((3S)-Methyl-1,1-dioxo-6-phenyl-[1,2]thiazinan-2-ylmethyl)-benzoyl]-piperidin-4-yl}-ethyl)-methanesulfonamide] is 2.7-fold higher in IC50: 660 nM for the first, 1770 nM for the second.

Compared with `C[C@H]1CCC(c2ccccc2)S(=O)(=O)N1Cc1ccc(C(=O)N2CCOC(C(=O)N(C)C)C2)cc1` (stereo partly drawn) [Example 293, 4-[4-((3S)-Methyl-1,1-dioxo-6-phenyl-[1,2]thiazinan-2-ylmethyl)-benzoyl]-morpholine-2-carboxylic acid dimethylamide], `C[C@H]1CCC(c2ccccc2)S(=O)(=O)N1Cc1ccc(C(=O)N2CC(c3cc[nH]n3)C2)cc1` (stereo partly drawn) [Example 297, [4-((3S)-Methyl-1,1-dioxo-6-phenyl-[1,2]thiazinan-2-ylmethyl)-phenyl]-[3-(1H-pyrazol-3-yl)-azetidin-1-yl]-methanone] is 3.1-fold lower in IC50: 8310 nM for the first, 2690 nM for the second.

First: C[C@H]1CCC(c2ccccc2)S(=O)(=O)N1Cc1ccc(C(=O)N2CC(c3nncn3C)C2)cc1 (stereo partly drawn) [Example 295, [4-((3S)-Methyl-1,1-dioxo-6-phenyl-[1,2]thiazinan-2-ylmethyl)-phenyl]-[3-(4-methyl-4H-[1,2,4]triazol-3-yl)-azetidin-1-yl]-methanone]
Second: C[C@H]1CCC(c2ccccc2)S(=O)(=O)N1Cc1ccc(C(=O)N2CCn3ccnc3C2)cc1 (stereo partly drawn) [Example 296, (5,6-Dihydro-8H-imidazo[1,2-a]pyrazin-7-yl)-[4-((3S)-methyl-1,1-dioxo-6-phenyl-[1,2]thiazinan-2-ylmethyl)-phenyl]-methanone]
The IC50 of the first is 4.1-fold higher: 5350 nM for the first, 1290 nM for the second. The second is the more potent here.
